Laboratory results published in US20200108029A1, “METHODS AND SYSTEMS FOR TREATING OVERWEIGHT INDIVIDUALS” (LiveLight LLC, priority 2013, published 2020).
Where two headings read alike, the source gives them in different places.

How the values were obtained:
[1] = tested on: patients; test: pooled previously published phentermine clinical trials (FIG. 1A); assay type: in vivo, human; conditions: dropouts included as having lost no net weight
From the text: Studies using phentermine alone or phentermine mixed with a placebo have reported significant patient dropout rates in a typical 8-12 weeks phentermine clinical trial (Lucey et al “Chlorphentermine, A New ‘Appetite Suppressant,’ A Cross-Over Double-Blind Trial,” Ulster Med. J., 1962, pages 181-184 reports a 66% dropout rate, Kim et al., “Effects on Weight Reduction and Safety of Short-Term Phentermine Administration in Korean Obese People,” Yonsei Med J., 2006 Vol. 47, No. 5, pages 614-625 reports a 47% dropout rate, Truant reports a 66% dropout rate, Munro reports a 41% dropout rate, and Langlois et al., “A Double-Blind Clinical Evaluation of the Safety and Efficacy of Phentermine Hydrochloride (Fastin) in the Treatment of Exogenous Obesity,” Curr Ther Res Clin Exp., 1974, Vol. 16, No. 4, pages 289-296 reports a 41% dropout rate). For broad clinical adoption, the intent to treat weight loss, e.g., the average weight loss of all the patients that were enrolled in the study, is the key measure.
FIG. 1A is a table showing the results of various previously published clinical trials using phentermine.

[2] = tested on: obesity patients; conditions: Munro, cited from earlier work
[3] = tested on: overweight (7) and obese (16) patients; test: study of customized weekly dose patterns of moderate and low dose phentermine capsules; assay type: in vivo, human
Protocol: A study was performed including 23 overweight (7) and obese (16) patients whose average initial weight was 207 lb. Inclusion and exclusion criteria were similar to those of many published phentermine clinical trials. The patients were offered conventional dietary advice, provided meal replacements in the form of one to two commercial shakes (Usana Health Sciences, Salt Lake City, Utah), and were encouraged to exercise. Historical controls available from many published data about weight loss that involved dietary advice, meal replacement, and encouragement to exercise were used.
During the study, each patient was prescribed a customized dose pattern level of moderate capsules of phentermine and low dose capsules of phentermine that were provided on a biweekly basis in a 7-compartment blister pack where each blister contained a daily red capsule. The patient was instructed to take the appropriate daily capsule in the morning around breakfast time. The pack was labeled “each capsule contains up to 35 mg of phentermine.” In this example, each capsule contained 35 mg, 15 mg, 10 mg, 7.5 mg or 0 mg of phentermine in addition to inert excipients. The patients received two dose pattern weekly medications strips every two weeks.
In addition to the pills, patients were given a smartphone app or access to a browser-based reporting form where they could report their daily weight, drug compliance, hunger level, exercise level, and side effects experienced. The data was fed directly to a database, which was analyzed by the physician administering the trial and their assistant.
The algorithm for treatment included the following steps:
(1) Each patient was started on a weight loss dose pattern with a midlevel weekly phentermine dose pattern level 2 as shown in FIG. 2. […]
(2) The maximum tolerated weight loss dose pattern for the patient was determined by reviewing the patient's current dose level pattern and his or her electronically reported daily hunger level and side effects such as sleeplessness. […]

[4] = tested on: patients in medical weight reduction; conditions: Truant, cited from earlier work

CC(C)(N)Cc1ccccc1 [phentermine, α-dimethyl-β-phenylethylamine]
intent to treat weight loss [1]: 9.0 lb | average weight loss, intermittent versus continuous ([2]; 12-week treatment with weeks 4 through 8 on placebo versus phentermine for all 12 weeks): lost as much weigh on average | weight loss ([2]; alternating monthly placebo/active trial, twelve weeks): 15 lbs | patients failing to complete the first 12 weeks in the program ([3]; first 12 weeks, indicates tolerability of the regimen): None of the patients failed to complete the first 12 weeks | average twelve-week weight loss ([3]; hunger and weight responsive patient-specific regimen, 12 weeks, intent to treat basis): 23 lb | reported side effects rate ([3]; once the initial dose was titrated): Lower reported side effects rate | weight lost ([4]; phentermine for twelve weeks except placebo on weeks 4, 8, and 12): 16.6 lb | weight lost ([4]; phentermine for twelve weeks): 18.8 lb
